Source: PubChem BioAssay AID206 (DTP/NCI, 2004)
Inconclusive results are not listed.

System: nude mice, HT29 intrarenal xenograft, tumor weight T/C
Assay: NCI In Vivo Anticancer Drug Screen. Data for tumor model HT29;CX-1 Human Adenocarcinoma (MER+) (intrarenal inoculation) in NU/NU Swiss (nude) mice
Conditions: endpoint: mean tumor weight change, higher = larger tumour
In short: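 Readout: treated/vehicle-control ratio of the measured endpoint (tumor size or survival) in transplanted-tumor mice.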

[1] = dose: 100.0 mg/kg/injection, schedule: Q04DX004 (sc), vehicle: saline with Tween-80
[2] = dose: 200.0 mg/kg/injection, schedule: Q04DX004 (sc), vehicle: saline with Tween-80
[3] = dose: 50.0 mg/kg/injection, schedule: Q04DX004 (sc), vehicle: saline
[4] = dose: 150.0 mg/kg/injection, schedule: Q04DX004 (sc), vehicle: suspension in saline
[5] = dose: 25.0 mg/kg/injection, schedule: Q01DX010 (sc), vehicle: saline
[6] = dose: 100.0 mg/kg/injection, schedule: Q01DX010 (sc), vehicle: saline
[7] = dose: 200.0 mg/kg/injection, schedule: Q01DX010 (sc), vehicle: saline
[8] = dose: 50.0 mg/kg/injection, schedule: Q01DX010 (sc), vehicle: saline

SMILES: COCCCNC1=C(C#N)C(=O)NC(c2cccc([N+](=O)[O-])c2)S1 (stereo not drawn)
- T/C [1]: 91 % of control
- T/C [2]: 165 % of control
- T/C (dose: 800.0 mg/kg/injection, schedule: Q04DX004 (sc), vehicle: saline with Tween-80): 164 % of control

SMILES: OCCN1CCN(CC/C=C2/c3ccccc3Sc3ccc(Cl)cc32)CC1
- T/C (dose: 25.0 mg/kg/injection, schedule: Q04DX004 (sc), vehicle: saline): 160 % of control
- T/C [3]: 87 % of control
- T/C (dose: 100.0 mg/kg/injection, schedule: Q04DX004 (sc), vehicle: saline): 82 % of control
- T/C (dose: 200.0 mg/kg/injection, schedule: Q04DX004 (sc), vehicle: saline): 40 % of control

SMILES: CS(=O)(=O)CS(=O)(=O)OCCCl
- T/C (dose: 37.5 mg/kg/injection, schedule: Q04DX004 (sc), vehicle: suspension in saline): 363 % of control
- T/C (dose: 75.0 mg/kg/injection, schedule: Q04DX004 (sc), vehicle: suspension in saline): 187 % of control
- T/C [4]: 150 % of control

SMILES: c1cnc2ncncc2n1
- T/C (dose: 25.0 mg/kg/injection, schedule: Q01DX010 (sc), vehicle: saline with Tween-80): 62 % of control
- T/C (dose: 50.0 mg/kg/injection, schedule: Q01DX010 (sc), vehicle: saline with Tween-80): 70 % of control
- T/C (dose: 100.0 mg/kg/injection, schedule: Q01DX010 (sc), vehicle: saline with Tween-80): 28 % of control

SMILES: C=C/C(C)=C/[C@H](C)C(=O)C[C@H](O)CC1CC(=O)NC(=O)C1
- T/C (dose: 150.0 mg/kg/injection, schedule: Q04DX004 (sc), vehicle: saline with Tween-80): 91 % of control
- T/C (dose: 300.0 mg/kg/injection, schedule: Q04DX004 (sc), vehicle: saline with Tween-80): 100 % of control
- T/C (dose: 600.0 mg/kg/injection, schedule: Q04DX004 (sc), vehicle: saline with Tween-80): 67 % of control
- T/C (dose: 1200.0 mg/kg/injection, schedule: Q04DX004 (sc), vehicle: saline with Tween-80): 63 % of control

SMILES: COC1N(C2CC(O)C(CO)O2)C(=O)NC(=O)C1(F)Br (stereo not drawn)
- T/C [5]: 28 % of control

SMILES: CC(C#N)(C#N)N=Nc1ccc(Cl)cc1Cl
- T/C [2]: 116 % of control
- T/C (dose: 1600.0 mg/kg/injection, schedule: Q04DX004 (sc), vehicle: saline with Tween-80): 106 % of control

SMILES: CN(C)N=Nc1ccccc1
- T/C (dose: 25.0 mg/kg/injection, schedule: Q04DX004 (sc), vehicle: Klucel (hydroxypropylcellulose) (HPC)): 93 % of control
- T/C (dose: 50.0 mg/kg/injection, schedule: Q04DX004 (sc), vehicle: Klucel (hydroxypropylcellulose) (HPC)): 62 % of control
- T/C (dose: 100.0 mg/kg/injection, schedule: Q04DX004 (sc), vehicle: Klucel (hydroxypropylcellulose) (HPC)): 84 % of control

SMILES: Cc1ccc2c(c1)N=C(Nc1ccccc1)N=S2(C)=O (stereo not drawn)
- T/C (dose: 50.0 mg/kg/injection, schedule: Q04DX004 (sc), vehicle: saline with Tween-80): 48 % of control
- T/C [1]: 67 % of control
- T/C [2]: 66 % of control

SMILES: C=C1C(=O)C2=CC1CCC(=O)C1(C)CCC(OC(C)=O)C(C)(C)C1CC2O (stereo not drawn)
- T/C (dose: 60.0 mg/kg/injection, schedule: Q04DX004 (sc), vehicle: Klucel (hydroxypropylcellulose) (HPC)): 91 % of control
- T/C (dose: 120.0 mg/kg/injection, schedule: Q04DX004 (sc), vehicle: Klucel (hydroxypropylcellulose) (HPC)): 116 % of control

SMILES: Nc1nc(=S)c2[nH]cnc2[nH]1
- T/C (dose: 0.39 mg/kg/injection, schedule: Q01DX010 (sc), vehicle: Klucel (hydroxypropylcellulose) (HPC)): 102 % of control
- T/C (dose: 0.78 mg/kg/injection, schedule: Q01DX010 (sc), vehicle: Klucel (hydroxypropylcellulose) (HPC)): 91 % of control

SMILES: CCCC(=O)O.CCCC(=O)O.CCCC(=O)O.CCCC(=O)O.[Rh].[Rh]
- T/C (dose: 0.5 mg/kg/injection, schedule: Q04DX004 (sc), vehicle: suspension in saline): 99 % of control
- T/C (dose: 1.0 mg/kg/injection, schedule: Q04DX004 (sc), vehicle: suspension in saline): 75 % of control
- T/C (dose: 2.0 mg/kg/injection, schedule: Q04DX004 (sc), vehicle: suspension in saline): 97 % of control
- T/C (dose: 4.0 mg/kg/injection, schedule: Q04DX004 (sc), vehicle: suspension in saline): 155 % of control

SMILES: Nc1ncnc2c1ncn2C1OC(COP(=O)(O)O)C(O)C1O (stereo not drawn)
- T/C [6]: 152 % of control
- T/C [7]: 198 % of control
- T/C (dose: 400.0 mg/kg/injection, schedule: Q01DX010 (sc), vehicle: saline): 260 % of control
- T/C (dose: 800.0 mg/kg/injection, schedule: Q01DX010 (sc), vehicle: saline): 67 % of control

SMILES: COc1cccc2c1C(=O)c1c(O)c3c(c(O)c1C2=O)C[C@@](O)(C(=O)CO)C[C@@H]3OC1CC(OC(C)=O)C(OC(C)=O)C(C)O1 (stereo partly drawn)
- T/C (dose: 25.0 mg/kg/injection, schedule: Q01DX010 (sc), vehicle: distilled water + Tween-80): 35 % of control

SMILES: CCCCCc1cc(O)c2c(c1)OC(C)(C)[C@@H]1CCC(C)=C[C@@H]21
- T/C (dose: 150.0 mg/kg/injection, schedule: Q04DX004 (sc), vehicle: other): 117 % of control
- T/C (dose: 300.0 mg/kg/injection, schedule: Q04DX004 (sc), vehicle: other): 76 % of control
- T/C (dose: 600.0 mg/kg/injection, schedule: Q04DX004 (sc), vehicle: other): 68 % of control
- T/C (dose: 1200.0 mg/kg/injection, schedule: Q04DX004 (sc), vehicle: other): 36 % of control

SMILES: [I][Hg][CH2]C1OCCOC1[CH2][Hg][I] (stereo not drawn)
- T/C (dose: 300.0 mg/kg/injection, schedule: Q04DX004 (sc), vehicle: Klucel (hydroxypropylcellulose) (HPC)): 81 % of control
- T/C (dose: 600.0 mg/kg/injection, schedule: Q04DX004 (sc), vehicle: Klucel (hydroxypropylcellulose) (HPC)): 104 % of control
- T/C (dose: 1200.0 mg/kg/injection, schedule: Q04DX004 (sc), vehicle: Klucel (hydroxypropylcellulose) (HPC)): 80 % of control
- T/C (dose: 2400.0 mg/kg/injection, schedule: Q04DX004 (sc), vehicle: Klucel (hydroxypropylcellulose) (HPC)): 73 % of control

SMILES: COc1ccc(C(=O)/C(Br)=C/C(=O)O)cc1
- T/C (dose: 12.5 mg/kg/injection, schedule: Q01DX010 (sc), vehicle: saline): 73 % of control
- T/C [5]: 122 % of control
- T/C [8]: 56 % of control

SMILES: O=c1[nH]cnc2c1ccn2C1OC(CO)C(O)C1O (stereo not drawn)
- T/C (dose: 5.0 mg/kg/injection, schedule: Q04DX004 (sc), vehicle: saline): 48 % of control
- T/C (dose: 10.0 mg/kg/injection, schedule: Q04DX004 (sc), vehicle: saline): 61 % of control
- T/C (dose: 20.0 mg/kg/injection, schedule: Q04DX004 (sc), vehicle: saline): 69 % of control
- T/C (dose: 40.0 mg/kg/injection, schedule: Q04DX004 (sc), vehicle: saline): 97 % of control

SMILES: CN(C)CCN1C(=O)c2cccc3cc([N+](=O)[O-])cc(c23)C1=O
- T/C (dose: 18.0 mg/kg/injection, schedule: Q04DX004 (sc), vehicle: saline with Tween-80): 95 % of control

SMILES: Nc1ccc2nc3ccc(N)cc3[n+](-c3ccccc3)c2c1
- T/C (dose: 9.0 mg/kg/injection, schedule: Q04DX004 (sc), vehicle: saline): 80 % of control
- T/C (dose: 18.0 mg/kg/injection, schedule: Q04DX004 (sc), vehicle: saline): 62 % of control
- T/C (dose: 36.0 mg/kg/injection, schedule: Q04DX004 (sc), vehicle: saline): 96 % of control
- T/C (dose: 72.0 mg/kg/injection, schedule: Q04DX004 (sc), vehicle: saline): 52 % of control

SMILES: N[C@H](C(=O)O)[C@@H]1CC(Cl)=NO1
- T/C (dose: 4.0 mg/kg/injection, schedule: Q01DX010 (sc), vehicle: saline): 21 % of control
- T/C (dose: 8.0 mg/kg/injection, schedule: Q01DX010 (sc), vehicle: saline): 35 % of control

SMILES: C/C=C/c1cc2n(c1)C(=O)c1cc(OC3OC(C)C(NC)C(C)(O)C3O)c(C)c(O)c1NC2O (stereo not drawn)
- T/C (dose: 12.5 micrograms/kg/injection, schedule: Q04DX004 (sc), vehicle: saline): 69 % of control
- T/C (dose: 25.0 micrograms/kg/injection, schedule: Q04DX004 (sc), vehicle: saline): 101 % of control
- T/C (dose: 50.0 micrograms/kg/injection, schedule: Q04DX004 (sc), vehicle: saline): 83 % of control
- T/C (dose: 100.0 micrograms/kg/injection, schedule: Q04DX004 (sc), vehicle: saline): 94 % of control

SMILES: COc1cc(C)c2c(c1C=O)Oc1c(c(C)c(O)c3c1C(O)OC3=O)OC2=O (stereo not drawn)
- T/C [8]: 68 % of control
- T/C [7]: 50 % of control

SMILES: CNC(=O)ON(C(C)=O)C(=O)NC
- T/C [5]: 75 % of control
- T/C [8]: 109 % of control
- T/C [3]: 34 % of control
- T/C [6]: 13 % of control
- T/C (dose: 100.0 mg/kg/injection, schedule: Q04DX004 (sc), vehicle: suspension in saline): 116 % of control
- T/C [4]: 114 % of control
- T/C (dose: 200.0 mg/kg/injection, schedule: Q04DX004 (sc), vehicle: suspension in saline): 57 % of control
- T/C (dose: 250.0 mg/kg/injection, schedule: Q04DX004 (sc), vehicle: suspension in saline): 18 % of control

SMILES: COc1cccc2c1C(=O)c1c(O)c3c(c(O)c1C2=O)C[C@@](O)(C(=O)CO)C[C@@H]3OC1CC(N(C)C)C(O)C(C)O1 (stereo partly drawn)
- T/C (dose: 1.0 mg/kg/injection, schedule: Q01DX010 (sc), vehicle: water): 19 % of control
- T/C (dose: 2.0 mg/kg/injection, schedule: Q01DX010 (sc), vehicle: water): 94 % of control
- T/C (dose: 4.0 mg/kg/injection, schedule: Q01DX010 (sc), vehicle: water): 29 % of control
